# Laboratory results published in patent US5141926A, “Erythromycin derivatives” (Abbott Laboratories, priority 1990, dated 1992).
# Read-outs that look alike come from different tables or passages of the source.
# What was measured:
# Escherichia coli JUHL = assay: Agar plate dilution MIC; format: cell-based
# Method: (§1) 6-Deoxyerythromycins A, B and C and 6-deoxy-15-norerythromycin B were tested for antibacterial activity using a standard agar plate dilution method in brain heart infusion broth. Erythromycin A was utilized as a control.
# [1] = test system: Staphylococcus aureus ATCC 6538P; assay: Agar plate dilution MIC; format: cell-based; details: ATCC6538P
# Method: as §1
# [2] = test system: Streptococcus agalactiae CMX 508; assay: Agar plate dilution MIC; format: cell-based
# Method: as §1
# [3] = test system: Streptococcus pyogenes EES61; assay: Agar plate dilution MIC; format: cell-based
# Method: as §1
# [4] = test system: Staphylococcus aureus NCTC 10649; assay: Agar plate dilution MIC; format: cell-based
# Method: as §1
# [5] = test system: Enterococcus faecium ATCC 8043; assay: Agar plate dilution MIC; format: cell-based
# Method: as §1
# [6] = test system: Staphylococcus epidermis 3519; assay: Agar plate dilution MIC; format: cell-based; details: brain heart infusion broth
# Method: as §1
# [7] = test system: Micrococcus luteus ATCC 9341; assay: Agar plate dilution MIC; format: cell-based
# Method: as §1
# Eschericha coli SS = assay: Agar plate dilution MIC; format: cell-based; details: brain heart infusion broth
# Method: as §1
# [8] = test system: Staphylococcus aureus CMX 553; assay: Agar plate dilution MIC; format: cell-based
# Method: as §1
# [9] = test system: murine infections of Staphylococci and Streptococci; assay: Acute mouse protection test, overall result; format: in vivo, female CF-1 mice; details: orally administered
# Method: (§2) The in vivo activity of 6-deoxyerythromycin A was evaluated using the acute mouse protection test. Mouse mortality was used to calcualte an ED50 value, i.e., the dose of drug required to protect 50% of the test animals against death due to inoculum challenge.
# (§3) The acute mouse protection test was conducted as described by Fernandes, et al. (Antimicrob. Agents Chemother. 29:201-208(1986)) on female CF-1 mice weighing 20-25 grams. The mice were injected intraperitoneally with bacterial suspensions at a concentration 100 times that producing an LD50 response. 6-Deoxyerythromycin A or erythromycin A were administered orally at 1 and 5 hours post-infection. The median effective doses for the cumulative mortalities on the sixth day after infection were calculated using a trimmed logit analysis (Hamilton, et. al., Environ Sci. Technol. 11:714-719 (1977)).
# [10] = test system: Staphylococcus aureus 10649; assay: Acute mouse protection test; format: in vivo, female CF-1 mice; details: read-out: ED50 (Dose Providing 50% Survival)
# Method: as §2, §3
# [11] = test system: Streptococcus pyogenes C203; assay: Acute mouse protection test; format: in vivo, female CF-1 mice; details: read-out: ED50 (Dose Providing 50% Survival)
# Method: as §2, §3
# [12] = test system: Streptococcus pneumoniae 6303; assay: Acute mouse protection test; format: in vivo, female CF-1 mice; details: read-out: ED50 (Dose Providing 50% Survival)
# Method: as §2, §3
# physchem = details: citric acid solution, pH 2.2
# Method: The relative acid stability of one of the compounds of the present invention was compared to that of erythromycin A. 11.8 mg of 6-deoxyerythromycin A was suspended in citric acid solution (pH 2.2) and allowed to remain at 37° C. for 8 hours. Aliquots were removed at 2, 5, 10, and 20 minutes and at 1, 2, 3, 4, 5, 6 and 8 hours. Degradation was quenced by adjusting each aliquot to pH 9.6 with 7.5 N NH4 OH, followed by extraction with methylene chloride.
# 10.5 mg of erythromycin A was identically suspended in critic acid solution (pH 2.0) and allowed to remain at 37° C. for 10 minutes. Aliquots were removed at 2, 5 and 10 minutes. Degradation was quenched by adjusting each aliquot to pH 9.6 with 7.5 N NH4 OH, followed by extraction with methylene chloride.
# [13] = Table 5, brain heart infusion broth
# [14] = Table 5, brain heart infusion broth, read-out: MIC value
# [15] = CMX508, Table 5, brain heart infusion broth, read-out: MIC value
# [16] = EES61, Table 5, brain heart infusion broth, read-out: MIC value
# [17] = NCTC10649, Table 5, brain heart infusion broth, read-out: MIC value
# [18] = ATCC8043, Table 5, brain heart infusion broth, read-out: MIC value
# [19] = Staphylococcus, 3519, Table 5, read-out: MIC value
# [20] = ATCC9341, Table 5, brain heart infusion broth, read-out: MIC value
# [21] = CMX553, Table 5, brain heart infusion broth, read-out: MIC value
# [22] = Table 4, brain heart infusion broth
# [23] = Table 4, brain heart infusion broth, read-out: MIC value
# [24] = CMX508, Table 4, brain heart infusion broth, read-out: MIC value
# [25] = EES61, Table 4, brain heart infusion broth, read-out: MIC value
# [26] = NCTC10649, Table 4, brain heart infusion broth, read-out: MIC value
# [27] = ATCC8043, Table 4, brain heart infusion broth, read-out: MIC value
# [28] = Staphylococcus, 3519, Table 4, read-out: MIC value
# [29] = ATCC9341, Table 4, brain heart infusion broth, read-out: MIC value
# [30] = CMX553, Table 4, brain heart infusion broth, read-out: MIC value
smiles,measurement,setting,value
CO[C@]1(C)C[C@H](O[C@H]2[C@H](C)[C@@H](O[C@@H]3O[C@H](C)C[C@H](N(C)C)[C@H]3O)[C@@H](C)C[C@@H](C)C(=O)[C@H](C)[C@@H](O)[C@@H](C)[C@@H](C)OC(=O)[C@@H]2C)O[C@@H](C)[C@@H]1O [6-Deoxy-15-norerythromycin B],MIC,Escherichia coli JUHL; [13],> 128 µg/mL
same,MIC,[1]; [14],2 µg/mL
same,MIC,[2]; [15],0.5 µg/mL
same,MIC,[3]; [16],0.25 µg/mL
same,MIC,[4]; [17],2 µg/mL
same,MIC,[5]; [18],2 µg/mL
same,MIC,[6]; [19],2 µg/mL
same,MIC,[7]; [20],0.25 µg/mL
same,MIC,Eschericha coli SS; Table 5,2 µg/mL
same,MIC,[8]; [21],2 µg/mL
CC[C@H]1OC(=O)[C@H](C)[C@@H](O[C@H]2C[C@@](C)(OC)[C@@H](O)[C@H](C)O2)[C@H](C)[C@@H](O[C@@H]2O[C@H](C)C[C@H](N(C)C)[C@H]2O)[C@@H](C)C[C@@H](C)C(=O)[C@H](C)[C@@H](O)[C@]1(C)O [6-Deoxyerythromycin A],effectiveness compared with erythromycin A,[9],as effective as erythromycin A
same,MIC,Escherichia coli JUHL; [22],> 128 µg/mL
same,MIC,[1]; [23],1 µg/mL
same,MIC,[2]; [24],0.12 µg/mL
same,MIC,[3]; [25],0.25 µg/mL
same,MIC,[4]; [26],1 µg/mL
same,MIC,[5]; [27],0.25 µg/mL
same,MIC,[6]; [28],1 µg/mL
same,MIC,[7]; [29],0.06 µg/mL
same,MIC,Eschericha coli SS; Table 4,2 µg/mL
same,MIC,[8]; [30],0.5 µg/mL
same,ED50,"[10]; Staphylococcus aureus, 10649, 144 h, oral, 1 and 5 hours post-infection, intraperitoneal inoculum 100 times LD50, mortality on sixth day",90.8 mg/kg
same,ED50,"[11]; C203, 144 h, oral, 1 and 5 hours post-infection, intraperitoneal inoculum 100 times LD50, mortality on sixth day",32.4 mg/kg
same,ED50,"[12]; Streptococcus pneumoniae, 6303, 144 h, oral, 1 and 5 hours post-infection, intraperitoneal inoculum 100 times LD50, mortality on sixth day",24.9 mg/kg
same,remaining at 4 h,physchem,> 50%
same,remaining at 8 h,physchem,~40%
CC[C@H]1OC(=O)[C@H](C)[C@@H](O[C@H]2C[C@@](C)(OC)[C@@H](O)[C@H](C)O2)[C@H](C)[C@@H](O[C@@H]2O[C@H](C)C[C@H](N(C)C)[C@H]2O)[C@@H](C)C[C@@H](C)C(=O)[C@H](C)[C@@H](O)[C@H]1C [6-Deoxyerythromycin B],MIC,Escherichia coli JUHL; [13],> 128 µg/mL
same,MIC,[1]; [14],1 µg/mL
same,MIC,[2]; [15],0.25 µg/mL
same,MIC,[3]; [16],0.12 µg/mL
same,MIC,[4]; [17],1 µg/mL
same,MIC,[5]; [18],0.5 µg/mL
same,MIC,[6]; [19],1 µg/mL
same,MIC,[7]; [20],0.12 µg/mL
same,MIC,Eschericha coli SS; Table 5,4 µg/mL
same,MIC,[8]; [21],1 µg/mL
CC[C@H]1OC(=O)[C@H](C)[C@@H](O[C@H]2C[C@@](C)(O)[C@@H](O)[C@H](C)O2)[C@H](C)[C@@H](O[C@@H]2O[C@H](C)C[C@H](N(C)C)[C@H]2O)[C@@H](C)C[C@@H](C)C(=O)[C@H](C)[C@@H](O)[C@]1(C)O [6-Deoxyerythromycin C],MIC,Escherichia coli JUHL; [22],> 128 µg/mL
same,MIC,[1]; [23],2 µg/mL
same,MIC,[2]; [24],0.25 µg/mL
same,MIC,[3]; [25],0.5 µg/mL
same,MIC,[4]; [26],2 µg/mL
same,MIC,[5]; [27],0.25 µg/mL
same,MIC,[6]; [28],4 µg/mL
same,MIC,[7]; [29],0.25 µg/mL
same,MIC,Eschericha coli SS; Table 4,16 µg/mL
same,MIC,[8]; [30],4 µg/mL
"CC[C@H]1OC(=O)[C@H](C)[C@@H](O[C@H]2C[C@@](C)(OC)[C@@H](O)[C@H](C)O2)[C@H](C)[C@@H](O[C@@H]2O[C@H](C)C[C@H](N(C)C)[C@H]2O)[C@](C)(O)C[C@@H](C)C(=O)[C@H](C)[C@@H](O)[C@]1(C)O [Erythromycin A, reference compound]",MIC,Escherichia coli JUHL; [22],64 µg/mL
same,MIC,Escherichia coli JUHL; [13],32 µg/mL
same,MIC,"[1]; read-out: MIC value, Table 4, brain heart infusion broth",0.25 µg/mL
same,MIC,"[1]; read-out: MIC value, Table 5, brain heart infusion broth",0.12 µg/mL
same,MIC,"[2]; CMX508, read-out: MIC value, Table 4, brain heart infusion broth",0.06 µg/mL
same,MIC,"[2]; CMX508, read-out: MIC value, Table 5, brain heart infusion broth",0.03 µg/mL
same,MIC,"[3]; EES61, read-out: MIC value, Table 4, brain heart infusion broth",0.03 µg/mL
same,MIC,"[3]; EES61, read-out: MIC value, Table 5, brain heart infusion broth",0.015 µg/mL
same,MIC,"[4]; NCTC10649, read-out: MIC value, Table 4, brain heart infusion broth",0.25 µg/mL
same,MIC,"[4]; NCTC10649, read-out: MIC value, Table 5, brain heart infusion broth",0.12 µg/mL
same,MIC,"[5]; ATCC8043, read-out: MIC value, Table 4, brain heart infusion broth",0.12 µg/mL
same,MIC,"[5]; ATCC8043, read-out: MIC value, Table 5, brain heart infusion broth",0.06 µg/mL
same,MIC,"[6]; Staphylococcus, 3519, read-out: MIC value, Table 4",0.5 µg/mL
same,MIC,"[6]; Staphylococcus, 3519, read-out: MIC value, Table 5",0.12 µg/mL
same,MIC,"[7]; ATCC9341, read-out: MIC value, Table 4, brain heart infusion broth",0.03 µg/mL
same,MIC,"[7]; ATCC9341, read-out: MIC value, Table 5, brain heart infusion broth",0.015 µg/mL
same,MIC,Eschericha coli SS; Table 4,1 µg/mL
same,MIC value,Eschericha coli SS; Table 5,1 µg/mL
same,MIC,"[8]; CMX553, read-out: MIC value, Table 4, brain heart infusion broth",0.25 µg/mL
same,MIC,"[8]; CMX553, read-out: MIC value, Table 5, brain heart infusion broth",0.12 µg/mL
same,ED50,"[10]; Staphylococcus aureus, 10649, po, 144 h",120 mg/kg
same,ED50,"[11]; C203, po, 144 h",54.5 mg/kg
same,ED50,"[12]; Streptococcus pneumoniae, 6303, po, 144 h",24.8 mg/kg
same,remaining at 2 min,physchem,< 10%
"CC[C@H]1OC(=O)[C@H](C)[C@@H](O[C@H]2C[C@@](C)(OC)[C@@H](O)[C@H](C)O2)[C@H](C)[C@@H](O[C@@H]2O[C@H](C)C[C@H](N(C)C)[C@H]2O)[C@](C)(O)C[C@@H](C)C(=O)[C@H](C)[C@@H](O)[C@H]1C [Erythromycin B, reference compound]",MIC,Escherichia coli JUHL; [13],32 µg/mL
same,MIC,[1]; [14],0.25 µg/mL
same,MIC,[2]; [15],0.03 µg/mL
same,MIC,[3]; [16],0.03 µg/mL
same,MIC,[4]; [17],0.25 µg/mL
same,MIC,[5]; [18],0.12 µg/mL
same,MIC,[6]; [19],0.25 µg/mL
same,MIC,[7]; [20],0.03 µg/mL
same,MIC,Eschericha coli SS; Table 5,2 µg/mL
same,MIC,[8]; [21],0.25 µg/mL
